Publication PMC7419507, “In vitro Cas9-assisted editing of modular polyketide synthase genes to produce desired natural product derivatives” (Nature Communications, 2020)
“And” between values parts separate entries of the source, which are not always exact repeats. Equal entries are not always repeated. “Also recorded” adds a separate entry of the source.

How the values were obtained:
FKBP12 and mTOR = molecular target: T1, FKBP12 and mTOR (Homo sapiens, UniProt P42345+P62942); experiment: Fluoppi analysis: induction of FKBP12-mTOR complex formation in transfected HeLa cells; type: cell-based; details: for Foci intensity: raw data, one replicate per line
T1 construct: host or cells: HeLa cells
Method in brief: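 HeLa cells co-transfected with phAG-mTOR and pAsh-FKBP12, seeded 3000 cells/well, then compound-treated 1 h after 24 h at 37 °C. Fixed, Hoechst-stained, imaged by high-content microscopy; foci fluorescence normalized to total cell fluorescence, EC50 computed.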

[1] = Cytotoxicity assay (CellTiter-Glo, 72 h), SKOV-3; type: cell-based, human; details: human, raw replicate data, read-out: SKOV3 viability (%)
Method in brief: (§1)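 Viability read by CellTiter-Glo luminescence after 72 h exposure to 2-fold compound dilutions (0.5% DMSO), added 4 h after plating 1000 cells/well.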

[2] = tested on: human ovarian adenocarcinoma SKOV-3 cells; experiment: Cytotoxicity assay (CellTiter-Glo, 72 h), SKOV-3; type: cell-based; details: raw replicate data
Method in brief: as §1

[3] = Cytotoxicity assay (CellTiter-Glo, 72 h), MESO-1; type: cell-based; details: human, MESO-1 malignant pleural mesothelioma cells, raw replicate data, read-out: MESO1 viability (%)
Method in brief: as §1

[4] = tested on: malignant pleural mesothelioma MESO-1 cells; experiment: Cytotoxicity assay (CellTiter-Glo, 72 h), MESO-1; type: cell-based; details: raw replicate data
Method in brief: as §1

[5] = tested on: Jurkat, SKOV-3 and MESO-1 cells; experiment: Cytotoxicity assay, statements for all tested cell lines together; type: cell-based
Method in brief: as §1

T1 sequence (P42345 2025-2114 limits assumed): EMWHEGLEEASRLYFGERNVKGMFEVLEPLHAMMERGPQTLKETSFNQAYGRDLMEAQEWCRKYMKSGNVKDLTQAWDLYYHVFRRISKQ
T1 sequence (P62942 whole entry): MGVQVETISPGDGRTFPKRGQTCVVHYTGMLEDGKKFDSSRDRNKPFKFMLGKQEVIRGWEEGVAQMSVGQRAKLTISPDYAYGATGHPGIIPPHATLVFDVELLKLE

## COC1CC2CCC(C)C(O)(O2)C(=O)C(=O)N2CCCCC2C(=O)OC(C(C)CC2CCC(O)C(OC)C2)CC(=O)C(C)C=C(C)C(O)C(OC)C(=O)C(C)CC(C)C=CCCC=C1C (stereo not drawn) [Compound 15, 19,20-dihidro-rapamycin]
FKBP12 and mTOR
  EC50: 6.3 nM
FKBP12 and mTOR; Fluoppi
  PPI-inducing (binding enhancing) activity between FKBP12 and mTOR compared with rapamycin (1), in words: as potent as rapamycin; also recorded: comparable level to that of rapamycin
FKBP12 and mTOR; conc 9.53674e-5 uM
  Foci intensity: 0.01733 and 0.01067 and 0.005693
FKBP12 and mTOR; conc 0.000190735 uM
  Foci intensity: 0.01213 and 0.0332 and 0.01291
FKBP12 and mTOR; conc 0.00038147 uM
  Foci intensity: 0.02253 and 0.02952 and 0.01485
FKBP12 and mTOR; conc 0.000762939 uM
  Foci intensity: 0.009661 and 0.01831 and 0.03236
FKBP12 and mTOR; conc 0.00152588 uM
  Foci intensity: 0.02962 and 0.01659 and 0.0505
FKBP12 and mTOR; conc 0.00305176 uM
  Foci intensity: 0.04113 and 0.07899 and 0.06427
FKBP12 and mTOR; conc 0.00610352 uM
  Foci intensity: 0.1575 and 0.2102 and 0.171
FKBP12 and mTOR; conc 0.012207 uM
  Foci intensity: 0.3436 and 0.3356 and 0.3668
FKBP12 and mTOR; conc 0.0244141 uM
  Foci intensity: 0.3409 and 0.4046 and 0.3885
FKBP12 and mTOR; conc 0.0488281 uM
  Foci intensity: 0.3546 and 0.3355 and 0.3935
FKBP12 and mTOR; conc 0.0976562 uM
  Foci intensity: 0.3693 and 0.3135 and 0.3917
FKBP12 and mTOR; conc 0.195312 uM
  Foci intensity: 0.3656 and 0.4341 and 0.3989
FKBP12 and mTOR; conc 0.390625 uM
  Foci intensity: 0.405 and 0.3385 and 0.3714
FKBP12 and mTOR; conc 0.78125 uM
  Foci intensity: 0.3465 and 0.4349 and 0.4007
FKBP12 and mTOR; conc 1.5625 uM
  Foci intensity: 0.3165 and 0.3834 and 0.336
FKBP12 and mTOR; conc 3.125 uM
  Foci intensity: 0.3857 and 0.3532 and 0.3973
FKBP12 and mTOR; conc 6.25 uM
  Foci intensity: 0.3637 and 0.3694 and 0.3083
FKBP12 and mTOR; conc 12.5 uM
  Foci intensity: 0.3396 and 0.3224 and 0.3917
FKBP12 and mTOR; conc 25 uM
  Foci intensity: 0.3402 and 0.3226 and 0.4132
FKBP12 and mTOR; conc 50 uM
  Foci intensity: 0.4382 and 0.3564 and 0.4638
[1]; SKOV-3 cells (ovarian adenocarcinoma), conc 9.53674e-5 uM
  viability at 72 h, 9.53674e-05 uM: 106%
[1]; SKOV-3 cells (ovarian adenocarcinoma), conc 0.000190735 uM
  viability at 72 h, 0.000190735 uM: 101%
[1]; SKOV-3 cells (ovarian adenocarcinoma), conc 0.00038147 uM
  viability at 72 h, 0.00038147 uM: 102%
[1]; SKOV-3 cells (ovarian adenocarcinoma), conc 0.000762939 uM
  viability at 72 h, 0.000762939 uM: 102%
[1]; SKOV-3 cells (ovarian adenocarcinoma), conc 0.00152588 uM
  viability at 72 h, 0.00152588 uM: 105%
[1]; SKOV-3 cells (ovarian adenocarcinoma), conc 0.00305176 uM
  viability at 72 h, 0.00305176 uM: 108%
[1]; SKOV-3 cells (ovarian adenocarcinoma), conc 0.00610352 uM
  viability at 72 h, 0.00610352 uM: 104%
[1]; SKOV-3 cells (ovarian adenocarcinoma), conc 0.012207 uM
  viability at 72 h, 0.012207 uM: 106%
[1]; SKOV-3 cells (ovarian adenocarcinoma), conc 0.0244141 uM
  viability at 72 h, 0.0244141 uM: 102%
[1]; SKOV-3 cells (ovarian adenocarcinoma), conc 0.0488281 uM
  viability at 72 h, 0.0488281 uM: 95.2%
[1]; SKOV-3 cells (ovarian adenocarcinoma), conc 0.0976562 uM
  viability at 72 h, 0.0976562 uM: 99.4%
[1]; SKOV-3 cells (ovarian adenocarcinoma), conc 0.195312 uM
  viability at 72 h, 0.195312 uM: 91%
[1]; SKOV-3 cells (ovarian adenocarcinoma), conc 0.390625 uM
  viability at 72 h, 0.390625 uM: 84.3%
[1]; SKOV-3 cells (ovarian adenocarcinoma), conc 12.5 uM
  viability at 72 h, 12.5 uM: 63.5%
[1]; SKOV-3 cells (ovarian adenocarcinoma), conc 25 uM
  viability at 72 h, 25 uM: 51.1%
[1]; SKOV-3 cells (ovarian adenocarcinoma), conc 50 uM
  viability at 72 h, 50 uM: 4%
[1]; SKOV-3 ovarian adenocarcinoma cells, conc 0.78125 uM
  viability at 72 h, 0.78125 uM: 77.1%
[1]; SKOV-3 ovarian adenocarcinoma cells, conc 1.5625 uM
  viability at 72 h, 1.5625 uM: 85.7%
[1]; SKOV-3 ovarian adenocarcinoma cells, conc 3.125 uM
  viability at 72 h, 3.125 uM: 72.5%
[1]; SKOV-3 ovarian adenocarcinoma cells, conc 6.25 uM
  viability at 72 h, 6.25 uM: 65.8%
[2]; conc 9.53674e-5 uM
  SKOV3 viability (%): 104.4%
[2]; conc 0.000190735 uM
  SKOV3 viability (%): 106.7% and 103.7%
[2]; conc 0.00038147 uM
  SKOV3 viability (%): 104.3% and 105.3%
[2]; conc 0.000762939 uM
  SKOV3 viability (%): 104.7% and 102.3%
[2]; conc 0.00152588 uM
  SKOV3 viability (%): 105.8%
[2]; conc 0.00610352 uM
  SKOV3 viability (%): 104.8% and 103.3%
[2]; conc 0.012207 uM
  SKOV3 viability (%): 100.2% and 102.5%
[2]; conc 0.0244141 uM
  SKOV3 viability (%): 99.1% and 104.1%
[2]; conc 0.0488281 uM
  SKOV3 viability (%): 98.9% and 94.0%
[2]; conc 0.0976562 uM
  SKOV3 viability (%): 97.9% and 101.5%
[2]; conc 0.195312 uM
  SKOV3 viability (%): 91.8% and 87.6%
[2]; conc 0.390625 uM
  SKOV3 viability (%): 93.7% and 87.4%
[2]; conc 0.78125 uM
  SKOV3 viability (%): 82.2% and 82.5%
[2]; conc 1.5625 uM
  SKOV3 viability (%): 81.5% and 77.5%
[2]; conc 3.125 uM
  SKOV3 viability (%): 73.9% and 77.4%
[2]; conc 6.25 uM
  SKOV3 viability (%): 68.2% and 74.1%
[2]; conc 12.5 uM
  SKOV3 viability (%): 67.0% and 61.2%
[2]; conc 25 uM
  SKOV3 viability (%): 54.3% and 53.4%
[2]; conc 50 uM
  SKOV3 viability (%): 3.9% and 4.5%
[3]; conc 9.53674e-5 uM
  viability at 72 h, 9.53674e-05 uM: 94.1%
[3]; conc 0.000190735 uM
  viability at 72 h, 0.000190735 uM: 92%
[3]; conc 0.00038147 uM
  viability at 72 h, 0.00038147 uM: 98.8%
[3]; conc 0.000762939 uM
  viability at 72 h, 0.000762939 uM: 93.3%
[3]; conc 0.00152588 uM
  viability at 72 h, 0.00152588 uM: 97.7%
[3]; conc 0.00305176 uM
  viability at 72 h, 0.00305176 uM: 89.3%
[3]; conc 0.00610352 uM
  viability at 72 h, 0.00610352 uM: 90.8%
[3]; conc 0.012207 uM
  viability at 72 h, 0.012207 uM: 87.6%
[3]; conc 0.0244141 uM
  viability at 72 h, 0.0244141 uM: 92.1%
[3]; conc 0.0488281 uM
  viability at 72 h, 0.0488281 uM: 82.9%
[3]; conc 0.0976562 uM
  viability at 72 h, 0.0976562 uM: 81.6%
[3]; conc 0.195312 uM
  viability at 72 h, 0.195312 uM: 70.6%
[3]; conc 0.390625 uM
  viability at 72 h, 0.390625 uM: 78.2%
[3]; conc 0.78125 uM
  viability at 72 h, 0.78125 uM: 66.4%
[3]; conc 1.5625 uM
  viability at 72 h, 1.5625 uM: 69.2%
[3]; conc 3.125 uM
  viability at 72 h, 3.125 uM: 67.6%
[3]; conc 6.25 uM
  viability at 72 h, 6.25 uM: 68.9%
[3]; conc 12.5 uM
  viability at 72 h, 12.5 uM: 63.9%
[3]; conc 50 uM
  viability at 72 h, 50 uM: 0.6%
[4]; conc 9.53674e-5 uM
  MESO1 viability (%): 97.4% and 107.3%
[4]; conc 0.000190735 uM
  MESO1 viability (%): 96.0% and 92.6%
[4]; conc 0.00038147 uM
  MESO1 viability (%): 101.5% and 100.0%
[4]; conc 0.000762939 uM
  MESO1 viability (%): 86.7% and 94.3%
[4]; conc 0.00152588 uM
  MESO1 viability (%): 92.8% and 93.2%
[4]; conc 0.00305176 uM
  MESO1 viability (%): 90.6%
[4]; conc 0.00610352 uM
  MESO1 viability (%): 91.6% and 97.1%
[4]; conc 0.012207 uM
  MESO1 viability (%): 80.5%
[4]; conc 0.0244141 uM
  MESO1 viability (%): 89.5% and 86.4%
[4]; conc 0.0488281 uM
  MESO1 viability (%): 83.3% and 88.8%
[4]; conc 0.0976562 uM
  MESO1 viability (%): 82.7% and 83.7%
[4]; conc 0.195312 uM
  MESO1 viability (%): 70.8% and 80.6%
[4]; conc 0.390625 uM
  MESO1 viability (%): 69.4% and 71.4%
[4]; conc 0.78125 uM
  MESO1 viability (%): 68.2% and 67.7%
[4]; conc 1.5625 uM
  MESO1 viability (%): 70.1% and 68.2%
[4]; conc 3.125 uM
  MESO1 viability (%): 66.5%
[4]; conc 6.25 uM
  MESO1 viability (%): 67.5% and 68.1%
[4]; conc 12.5 uM
  MESO1 viability (%): 65.8% and 62.8%
[4]; conc 25 uM
  MESO1 viability (%): 15.9% and 37.2% and 39.7%
[4]; conc 50 uM
  MESO1 viability (%): 0.367% and 0.476%
[5]; Jurkat, SKOV-3 and MESO-1 cells, 72 h
  Effect on cell viability, in words: slightly suppressed the cell viabilities
[5]; relative to rapamycin (1)
  Cytostatic effect, fold lower than that of 1: ~ 100 fold
